Where two headings read alike, the source gives them in different places.
Key:
[1] = cited from earlier work
[2] = Supine blood pressure and ECG-measured heart rate; assay type: in vivo, human; details: for decrease of supine DBP Emax in relation to day 1 / decrease of supine DBP AUCEC in relation to day 1: repeated dosing
[3] = assay type: in vivo, human
[4] = healthy subjects; cited from earlier work
[5] = Safety and tolerability; assay type: in vivo, human
[6] = Plasma pharmacokinetics, rising multiple-dose study; assay type: in vivo, human
[7] = system: spontaneously hypertensive rats (SHR); details: cited from earlier work
[8] = system: urinary levels of norepinephrine, dopamine, epinephrine and homovanillic acid; assay: Urinary catecholamine excretion; assay type: in vivo, human; details: for decrease of urinary excretion of norepinephrine at day 10 in relation to day 1: 24-hour urine
[9] = system: DβH; details: cited from earlier work
[10] = etamicastat 25–600 mg once daily for 10 days

For `Cl.NCCc1c[nH]c(=S)n1[C@H]1COc2c(F)cc(F)cc2C1` [Etamicastat, (R)-5-(2-aminoethyl)-1-(6,8-difluorochroman-3-yl)-1,3-dihydroimidazole-2-thione hydrochloride], the “time of maximum plasma concentrations (Cmax) after dosing” value ([1]; single dose 2–1200 mg) is listed as 1 to 3 h, the tolerability ([1]; single doses 2–1200 mg) is listed as “well tolerated at all the investigated dose levels” and the “longer elimination half-life (t1/2)” value ([1]; single etamicastat doses ≥100 mg) is listed as 16 to 20 h. For the same molecule, the “decrease of supine DBP Emax in relation to day 1” value ([2]; etamicastat 100 mg, p < 0.01) was 5.6 mmHg, the “decrease of supine DBP AUCEC in relation to day 1” value ([2]; etamicastat 100 mg, p < 0.05) was 223 mmHg · h and the “decrease of supine DBP AUCEC in relation to day 1” value ([2]; etamicastat 200 mg, p < 0.05) was 193 mmHg · h. For the same molecule, the “decrease of supine DBP Emax in relation to day 1” value ([2]; etamicastat 200 mg, p < 0.05) was 5.9 mmHg, the “change in SBP and HR” value ([2]; following repeated dosing, any dose level) was “did not significantly change” and the “changes in SBP, DBP or HR” value ([2]; following the first dose, etamicastat 25–600 mg) was “no significant changes”. For the same molecule, the urinary excretion rate ([3]; first dose, etamicastat 25 mg) was 0.3 ± 0.1 mg/h, the urinary excretion rate ([3]; first dose, etamicastat 600 mg) was 8.5 ± 3.2 mg/h and the urinary excretion rate ([3]; last dose, etamicastat 25 mg) was 0.4 ± 0.2 mg/h. The urinary excretion rate ([3]; last dose, etamicastat 600 mg) was 10.6 ± 2.8 mg/h, the CL renal ([3]; male, human, urine and plasma, po) was 198 to 267 mL/min and the “effect of food on absorption” value [4] was “delayed by the presence of food”. For the same molecule, the “effect of food on extent of systemic exposure (AUC)” value [4] was “no significant effect”, the “subjects reporting diarrhea as an AE” value ([5]; 600 mg etamicastat group) was 83% and the clinical laboratory evaluations [5, 10] was “no clinically significant abnormality”. The “intensity of adverse events” value [5, 10] was “mild to moderate”, the serious adverse events [5, 10] was “no serious AEs” and the tolerability ([5]; etamicastat up to 600 mg once daily for 10 days) was “generally well tolerated”. The “days of dosing until steady-state plasma concentrations were attained” value ([6]; all dose groups 25–600 mg once daily) was “up to 9 days”, the linearity of pharmacokinetics ([6]; dose range 25–600 mg) was “linear pharmacokinetics” and the “day at which steady state was reached (trough plasma concentrations)” value (“day at which steady state was reached” below) ([6]; etamicastat 200 mg once daily) was 9 days. The “day at which steady state was reached” value ([6]; etamicastat 400 mg once daily) was 8 days, the “effect of NAT1 phenotype on etamicastat pharmacokinetics” value ([6]; etamicastat 25–600 mg) was “No relevant effect” and the half-life ([6]; male, human, plasma, oral, mean apparent t1/2 following the first dose, range over etamicastat 25–600 mg, plasma) was 9 to 15 h. For the same molecule, the “mean observed accumulation ratio (RO)” value ([6]; range over etamicastat 25–600 mg once daily for 10 days) was 1.3–1.9, the “time after dosing at which maximum concentration (Cmax) was reached” value ([6]; range over etamicastat 25–600 mg once daily, plasma) was 1 to 3 h and the “day at which steady state was reached” value ([6]; remaining dose groups) was under 6 days. For the same molecule, the “blood pressure and norepinephrine urinary excretion” value ([7]; chronically administered in drinking water, SHR rats) was “significantly reduced”, the “urinary excretion of dopamine” value ([7]; chronically administered in drinking water, only in SHR rats) was “increased significantly” and the “systolic and diastolic blood pressure (but not the heart rate)” value ([7]; oral administration, SHR rats, dose-dependent, not observed in normotensive control rats) was “decreased”. The “change in urinary excretion of homovanillic acid, epinephrine and dopamine” value ([8]; day 1 to day 10, all dose groups) was “No relevant changes”, the “decrease in norepinephrine urinary excretion” value ([8]; doses of etamicastat 100 mg and above, day 10 vs day 1) was 32–36% and the “decrease of urinary excretion of norepinephrine at day 10 in relation to day 1” value (shortened to “decrease of urinary excretion … to day 1”) ([8]; etamicastat 25 mg once daily) was 24%. For the same molecule, the “decrease of urinary excretion … to day 1” value ([8]; etamicastat 50 mg once daily) was 18%, the “decrease of urinary excretion … to day 1” value ([8]; etamicastat 100 mg once daily) was 36% and the “decrease of urinary excretion … to day 1” value ([8]; etamicastat 200 mg once daily) was 34%. The “decrease of urinary excretion … to day 1” value ([8]; etamicastat 400 mg once daily) was 32% and the “decrease of urinary excretion … to day 1” value ([8]; etamicastat 600 mg once daily) was 34%.

In the case of `NCc1c[nH]c(=S)n1[C@H]1CCc2c(F)cc(F)cc2C1` [Nepicastat], the “potency as DβH inhibitor versus first- and second-generation inhibitors” value [9] is given as “much greater potency”.

From article PMC3585840 (Drugs in R&D, 2012)
